Laboratory results reported in patent US10721934B2, “Enhanced preservative” (Arch Chemicals, Inc., priority 2013, dated 2020).

What was measured:
Type in all cases: cell-based
[1] = tested on: Pseudomonas aeruginosa ATCC 15442; assay: Minimum Inhibitory Concentration (MIC) test, 96 well microtiter plate; conditions: single chemical
Description: Microorganisms: Pseudomonas aeruginosa ATCC 15442
MIC set up: A 96 well microtiter plate Minimum Inhibitory Concentration (MIC) test was run in broth suitable for the test organism. Serially diluted actives were prepared in sterilized water, and the start-up concentration varied depending on the efficacy range. Inocula prepared in 2× suitable broth was added into each well, and the final concentrations of bacteria were adjusted to approximately 5×10^5.

[2] = tested on: mixed bacterial inoculum (Pseudomonas aeruginosa, Enterobacter cloacae, Escherichia coli, Acinetobacter calcoaceticus); assay: Repeated inoculation of standard acrylic paint, streak plate rating
Summary of the method: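 Acrylic paint containing pyrithione, isothiazolinone and biocide enhancing agent, alone or mixed at varied concentrations, was challenged three times with an aqueous suspension of the four bacteria in equal proportions. Samples were streak plated 24, 48 and 72 h after inoculation and the plates rated for growth.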

Aureobasidium pullulans = assay: MIC test, 96 well microtiter plate; conditions: single chemical
Summary of the method: (§1)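 Broth microdilution MIC in broth suited to each organism; actives serially diluted in sterile water, starting concentration set by efficacy range. Inoculum in 2× broth added per well to approximately 5×10^5 final. Amines also tested combined with a pyrithione and two isothiazolinones.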

Aspergillus brasiliensis = assay: MIC test, 96 well microtiter plate; conditions: single chemical
Summary of the method: as §1

Staphylococcus aureus = assay: MIC test, 96 well microtiter plate; conditions: single chemical
Summary of the method: as §1

Candida albicans = assay: MIC test, 96 well microtiter plate; conditions: single chemical
Summary of the method: as §1

Escherichia coli = assay: MIC test, 96 well microtiter plate; conditions: single chemical
Summary of the method: as §1

## Zinc Pyrithione [ZnPT]
[1]
  Minimum Inhibitory Concentration: 62.5 ppm
[2]; Set Five, ZPT 50 ppm, 1st inoculation 24 h
  streak plate rating: 0
[2]; Set Five, ZPT 50 ppm, 1st inoculation 48 h
  streak plate rating: 0
[2]; Set Five, ZPT 50 ppm, 1st inoculation 72 h
  streak plate rating: 0
[2]; Set Five, ZPT 50 ppm, 2nd inoculation 24 h
  streak plate rating: 2 (6-15 viable microorganisms Lightly contaminated)
[2]; Set Five, ZPT 50 ppm, 2nd inoculation 48 h
  streak plate rating: 0
[2]; Set Five, ZPT 50 ppm, 2nd inoculation 72 h
  streak plate rating: 0
[2]; Set Five, ZPT 50 ppm, 3rd inoculation 24 h
  streak plate rating: 3 (16-30 viable microorganisms Moderately contaminated)
[2]; Set Five, ZPT 50 ppm, 3rd inoculation 48 h
  streak plate rating: 5 (>45 viable microorganisms Severely contaminated)
[2]; Set Five, ZPT 50 ppm, 3rd inoculation 72 h
  streak plate rating: 5 (>45 viable microorganisms Severely contaminated)
[2]; Set Four, ZPT 50 ppm, 1st inoculation 24 h
  streak plate rating: 0
[2]; Set Four, ZPT 50 ppm, 1st inoculation 48 h
  streak plate rating: 0
[2]; Set Four, ZPT 50 ppm, 1st inoculation 72 h
  streak plate rating: 0
[2]; Set Four, ZPT 50 ppm, 2nd inoculation 24 h
  streak plate rating: 2 (6-15 viable microorganisms Lightly contaminated)
[2]; Set Four, ZPT 50 ppm, 2nd inoculation 48 h
  streak plate rating: 0
[2]; Set Four, ZPT 50 ppm, 2nd inoculation 72 h
  streak plate rating: 0
[2]; Set Four, ZPT 50 ppm, 3rd inoculation 24 h
  streak plate rating: 3 (16-30 viable microorganisms Moderately contaminated)
[2]; Set Four, ZPT 50 ppm, 3rd inoculation 48 h
  streak plate rating: 5 (>45 viable microorganisms Severely contaminated)
[2]; Set Four, ZPT 50 ppm, 3rd inoculation 72 h
  streak plate rating: 5 (>45 viable microorganisms Severely contaminated)
[2]; Set One, ZPT 50 ppm, 1st inoculation 24 h
  streak plate rating: 3 (16-30 viable microorganisms Moderately contaminated)
[2]; Set One, ZPT 50 ppm, 1st inoculation 48 h
  streak plate rating: 3 (16-30 viable microorganisms Moderately contaminated)
[2]; Set One, ZPT 50 ppm, 2nd inoculation 24 h
  streak plate rating: 5 (>45 viable microorganisms Severely contaminated)
[2]; Set One, ZPT 50 ppm, 2nd inoculation 48 h
  streak plate rating: 5 (>45 viable microorganisms Severely contaminated)
[2]; Set One, ZPT 50 ppm, 2nd inoculation 72 h
  streak plate rating: 5 (>45 viable microorganisms Severely contaminated)
[2]; Set One, ZPT 50 ppm, 3rd inoculation 24 h
  streak plate rating: 5 (>45 viable microorganisms Severely contaminated)
[2]; Set One, ZPT 50 ppm, 3rd inoculation 48 h
  streak plate rating: 5 (>45 viable microorganisms Severely contaminated)
[2]; Set One, ZPT 50 ppm, 3rd inoculation 72 h
  streak plate rating: 5 (>45 viable microorganisms Severely contaminated)
[2]; Set Three, ZPT 50 ppm, 1st inoculation 24 h
  streak plate rating: 5 (>45 viable microorganisms Severely contaminated)
[2]; Set Three, ZPT 50 ppm, 1st inoculation 48 h
  streak plate rating: 3 (16-30 viable microorganisms Moderately contaminated)
[2]; Set Three, ZPT 50 ppm, 1st inoculation 72 h
  streak plate rating: 5 (>45 viable microorganisms Severely contaminated)
[2]; Set Three, ZPT 50 ppm, 2nd inoculation 24 h
  streak plate rating: 5 (>45 viable microorganisms Severely contaminated)
[2]; Set Three, ZPT 50 ppm, 2nd inoculation 48 h
  streak plate rating: 5 (>45 viable microorganisms Severely contaminated)
[2]; Set Three, ZPT 50 ppm, 2nd inoculation 72 h
  streak plate rating: 5 (>45 viable microorganisms Severely contaminated)
[2]; Set Three, ZPT 50 ppm, 3rd inoculation 24 h
  streak plate rating: 5 (>45 viable microorganisms Severely contaminated)
[2]; Set Three, ZPT 50 ppm, 3rd inoculation 48 h
  streak plate rating: 5 (>45 viable microorganisms Severely contaminated)
[2]; Set Three, ZPT 50 ppm, 3rd inoculation 72 h
  streak plate rating: 5 (>45 viable microorganisms Severely contaminated)
[2]; Set Two, ZPT 25 ppm, 1st inoculation 24 h
  streak plate rating: 5 (>45 viable microorganisms Severely contaminated)
[2]; Set Two, ZPT 25 ppm, 1st inoculation 48 h
  streak plate rating: 5 (>45 viable microorganisms Severely contaminated)
[2]; Set Two, ZPT 25 ppm, 1st inoculation 72 h
  streak plate rating: 5 (>45 viable microorganisms Severely contaminated)
[2]; Set Two, ZPT 25 ppm, 2nd inoculation 24 h
  streak plate rating: 5 (>45 viable microorganisms Severely contaminated)
[2]; Set Two, ZPT 25 ppm, 2nd inoculation 48 h
  streak plate rating: 5 (>45 viable microorganisms Severely contaminated)
[2]; Set Two, ZPT 25 ppm, 2nd inoculation 72 h
  streak plate rating: 5 (>45 viable microorganisms Severely contaminated)
[2]; Set Two, ZPT 25 ppm, 3rd inoculation 24 h
  streak plate rating: 5 (>45 viable microorganisms Severely contaminated)
[2]; Set Two, ZPT 25 ppm, 3rd inoculation 48 h
  streak plate rating: 5 (>45 viable microorganisms Severely contaminated)
[2]; Set Two, ZPT 25 ppm, 3rd inoculation 72 h
  streak plate rating: 5 (>45 viable microorganisms Severely contaminated)
[2]; Set Two, ZPT 50 ppm, 1st inoculation 24 h
  streak plate rating: 2 (6-15 viable microorganisms Lightly contaminated)
[2]; Set Two, ZPT 50 ppm, 1st inoculation 48 h
  streak plate rating: 3 (16-30 viable microorganisms Moderately contaminated)
[2]; Set Two, ZPT 50 ppm, 1st inoculation 72 h
  streak plate rating: 3 (16-30 viable microorganisms Moderately contaminated)
[2]; Set Two, ZPT 50 ppm, 2nd inoculation 24 h
  streak plate rating: 4 (31-45 viable microorganisms Heavily contaminated)
[2]; Set Two, ZPT 50 ppm, 2nd inoculation 48 h
  streak plate rating: 5 (>45 viable microorganisms Severely contaminated)
[2]; Set Two, ZPT 50 ppm, 2nd inoculation 72 h
  streak plate rating: 5 (>45 viable microorganisms Severely contaminated)
[2]; Set Two, ZPT 50 ppm, 3rd inoculation 24 h
  streak plate rating: 5 (>45 viable microorganisms Severely contaminated)
[2]; Set Two, ZPT 50 ppm, 3rd inoculation 48 h
  streak plate rating: 5 (>45 viable microorganisms Severely contaminated)
[2]; Set Two, ZPT 50 ppm, 3rd inoculation 72 h
  streak plate rating: 5 (>45 viable microorganisms Severely contaminated)
Aureobasidium pullulans
  Minimum Inhibitory Concentration: 3.9 ppm
Aspergillus brasiliensis
  Minimum Inhibitory Concentration: 15.6 ppm
Staphylococcus aureus
  Minimum Inhibitory Concentration: 7.8 ppm
Candida albicans
  Minimum Inhibitory Concentration: 7.8 ppm
Escherichia coli
  Minimum Inhibitory Concentration: 3.9 ppm
